Assay results taken from US9249076B2, “Recyclable extractant compositions” (BUTAMAX ADVANCED BIOFUELS LLC, priority 2012, dated 2016).
Values joined by “and” are separate entries in the source; they are usually repeats but may differ in a detail not shown here. Equal entries are not always repeated. One block for each compound: values may come before it.

Legend:
[1] = Oil Stability Index (OSI), antioxidant activity in COFA, AOCS Cd 12b-92; details: 110° C.
Protocol: Antioxidants were added on a weight percent basis to quantities of Corn Oil Fatty Acids (CAS No. 8001-30-7) and allowed to dissolve. […] COFA samples containing undissolved antioxidants were thoroughly mixed before withdrawing samples for analysis, to ensure the samples contained the specified weight percent of antioxidant.
Samples were run and the induction periods were determined according to AOCS method Cd 12b-92. All samples were tested at 110° C.

[2] = system: gram-negative and gram-positive bacteria (e.g., Lactobacillus); details: cited from earlier work
[3] = system: yeast (e.g., Saccharomyces); details: cited from earlier work

SMILES: Cc1cc(C(C)(C)C)c(O)c(C(C)(C)C)c1 [BHT, butylated hydroxytoluene]
Antimicrobial activity [2]: have antimicrobial activity
Effect on yeast [3]: does not affect yeast
Activity Index ([1]; Crude COFA, dose 0.0200 Wt %): 1.42
OSI ([1]; Crude COFA, dose 0.0200 Wt %): 1.85 h
Activity Index ([1]; Crude COFA, dose 0.1998 Wt %): 2.19
OSI ([1]; Crude COFA, dose 0.1998 Wt %): 2.85 h
Activity Index ([1]; Crude COFA, dose 0.2020 Wt %): 2.11
OSI ([1]; Crude COFA, dose 0.2020 Wt %): 3 h
Activity Index ([1]; Crude COFA, dose 0.205 Wt %): 2.43 and 2.72
OSI ([1]; Crude COFA, dose 0.205 Wt %): 11.3 h and 12.65 h
Activity Index ([1]; Crude COFA, dose 0.2097 Wt %): 2.07
OSI ([1]; Crude COFA, dose 0.2097 Wt %): 2.95 h
Activity Index ([1]; Distilled COFA, dose 0.2 Wt %): 17.63
OSI ([1]; Distilled COFA, dose 0.2 Wt %): 2.35 h
Activity Index ([1]; Distilled COFA, dose 1.1 Wt %): 52.50
OSI ([1]; Distilled COFA, dose 1.1 Wt %): 7 h
Activity Index ([1]; Distilled COFA, dose 2 Wt %): 66.00
OSI ([1]; Distilled COFA, dose 2 Wt %): 8.8 h

SMILES: CCOc1ccc2c(c1)C(C)=CC(C)(C)N2 [Ethoxyquin]
Activity Index ([1]; Crude COFA, dose 0.2074 Wt %): 0.67
OSI ([1]; Crude COFA, dose 0.2074 Wt %): 0.95 h

SMILES: O=C(O)c1cc(O)c(O)c(O)c1 [Gallic acid]
Activity Index ([1]; Crude COFA, dose 0.193 Wt %): 1.70 and 1.25
OSI ([1]; Crude COFA, dose 0.193 Wt %): 7.9 h and 5.8 h

SMILES: c1ccc2c(c1)Nc1ccccc1S2 [Phenothiazine]
Activity Index ([1]; Crude COFA, dose 0.2034 Wt %): 1.61
OSI ([1]; Crude COFA, dose 0.2034 Wt %): 2.3 h

Now from value to compound, other results behind:

OSI ([1]; Distilled COFA, dose 0.2 Wt %): 0.35 h
OSI ([1]; Distilled COFA, dose 1.1 Wt %): 0.15 h
OSI ([1]; Distilled COFA, dose 2 Wt %): 0.15 h
SMILES: Cc1c(C)c2c(c(C)c1O)CC[C@@](C)(CCC[C@H](C)CCC[C@H](C)CCCC(C)C)O2 [a-Tocopherol]
Activity Index ([1]; Distilled COFA, dose 0.2 Wt %): 2.63
Activity Index ([1]; Distilled COFA, dose 1.1 Wt %): 1.13
Activity Index ([1]; Distilled COFA, dose 2 Wt %): 1.13

OSI ([1]; Crude COFA, dose 0.2046 Wt %): 2.35 h
SMILES: Cc1c(Cc2cc(C(C)(C)C)c(O)c(C(C)(C)C)c2)c(C)c(Cc2cc(C(C)(C)C)c(O)c(C(C)(C)C)c2)c(C)c1Cc1cc(C(C)(C)C)c(O)c(C(C)(C)C)c1 [Irganox 1330]
Activity Index ([1]; Crude COFA, dose 0.2046 Wt %): 1.65

OSI ([1]; Crude COFA, dose 0.0200 Wt %): 1.75 h
OSI ([1]; Crude COFA, dose 0.2000 Wt %): 3.65 h
OSI ([1]; Crude COFA, dose 0.2082 Wt %): 3.7 h
SMILES: CC(C)(C)c1cc(O)ccc1O [TBHQ, tertiary-butylhydroquinone]
Activity Index ([1]; Crude COFA, dose 0.0200 Wt %): 1.35
Activity Index ([1]; Crude COFA, dose 0.2000 Wt %): 2.81
Activity Index ([1]; Crude COFA, dose 0.2082 Wt %): 2.60

OSI ([1]; Crude COFA, dose 0.0100 Wt %): 10.05 h
OSI ([1]; Crude COFA, dose 0.0200 Wt %): 4.1 h
OSI ([1]; Crude COFA, dose 0.2000 Wt %): 25.4 h and 29.8 h
OSI ([1]; Crude COFA, dose 0.2045 Wt %): 26.4 h
SMILES: CCCCCCCCCCCCCCCC(=O)OC[C@H](O)[C@H]1OC(=O)C(O)=C1O [L-ascorbic acid 6-palmitate]
